Measured values published in US20120058110A1, “Method for Predicting the Responsiveness to an Anti-TNF Alpha Antibody Treatment” (INSERM (INSTITUT NATIONAL DE LA SANTE ET DE LA RECHERCHE …, priority 2009, published 2012).
Entries after “also recorded” stand apart in the source; their conditions may differ.

Tests used:
[1] = system: human macrophages; experiment: sIL-15Rα secretion by human macrophages cultured with IFX, etanercept, GM-6001; format: cell-based; details: for sIL-15Rα secretion: human macrophages, 8 h; for effect on sIL-15Rα secretion by macrophages: versus macrophages cultured without the agent
Description: (§1) The quantification of sIL-15Rα and IL-15 was determined as previously described (Mortier et al. J Immunol 2004; 173:1681-8). Sandwich RIAs were set up in which the goat anti-human IL-15Rα Ab AF247 or the mouse anti-human IL-15 Mab247 (R&D) was used as capture Ab and radio-iodinated anti-human IL-15Rα Ab M161 (GenMab; Copenhagen, Denmark) or radio-iodinated mouse anti human IL-15 BE-29 (Diaclone: Besançon, France) was used as tracer. A purified recombinant sIL-15Rα protein (Bernard et al. J Biol Chem 2004; 279:24313-22) and recombinant IL-15 (Peprotech) were used as standards. Capture Abs were coated (5 μg/mL; 50 μL/well) to high-adsorption Nunc maxisorp plates (Fisher Bioblock Scientific, Illkirch, France). Wells were saturated with PBS-BSA 0.5% for 15 min and samples (50 μL/well) were incubated for 1 h at 4° C. The M161 or BE-29 mAbs were iodinated using the iodogen method and then added (1 nM, 50 μL/well) for 1 h at 4° C. Supernatants of each well were collected and the wells washed twice with PBS. The radioactivity associated to the wells (bound fraction) and contained in the supernatants and washes (unbound fraction) were determined.
Human monocytes were isolated from blood samples of healthy donors. PBMC were collected after Ficoll-Hypaque density centrifugation, resuspended at 7×10^6 cells/mL and allowed to adhere in culture flasks (RPMI 1640 supplemented with L-glutamine, streptomycin, penicillin, 10% FCS) for 1 h 30 at 37° C. Nonadherent cells were removed and adherent cells were washed five times with PBS. Monocytes were further differentiated for 5 days in the same medium supplemented with GM-CSF (100 ng/mL). […] After incubation, supernatants were obtained by centrifugation.

[2] = system: patients with active CD; experiment: Clinical response and CDAI in active CD patients treated with IFX; format: in vivo, human
Description: Clinical response for patients treated for perineal disease was assessed by the disappearance of draining fistulas. Blood samples were taken before each infusion and were centrifuged and stored at −80° C. Blood samples were also collected in 37 healthy volunteers. Forty patients with active CD were included in the study (12 males, 28 females, mean age 37.8 years). According to the Montreal classification, the disease was predominantly located into the colon (L2) or the ileocolon (L3) in 62.5 and 32.5% respectively and the disease was mostly non-stricturing and non-penetrating (B1). […] Six patients were treated by a combination of steroids and immunosuppressors, 3 patients received only steroids, 30 only immunosuppressors. Treatments were not modified except steroids which were always stopped between the first and the third infusion. There were no clinical and demographic differences between patients who experienced a response or not to IFX.

[3] = system: TNFα; experiment: Serum TNFα of CD patients before/after IFX (WEHI 164 XTT bio-assay); format: in vivo, human
Description: TNFα concentrations were measured in the serum of 43 patients (33 responder patients, 10 non-responders). Quantification TNFα was performed by the XTT method using the murine cell line WEHI 164 (ATCC N^o CRL1751) (Espevik et al. J Immunol Methods 1986; 95:99-105). Cells were seeded in 96-well plates (3×10^4 cells/50 μL/well) and grown at 37° C. in RPMI 1640 supplemented with […] of glutamine, 10% heat-inactivated FCS, LiCl and actinomycin D. Sera from CD patients and healthy volunteers were serially diluted, added to wells and a purified recombinant TNFα (R&D) was used as standard. After 20 h of culture, 50 μL/well of XTT and electron coupling reagent was added and cell survival was determined by measuring the optical density at 450 nm. The sensitivity of the assay was 0.10 pg/mL. The TNFα upper normal limit was calculated by the mean+2 SD of the values obtained in the healthy volunteers.

[4] = system: IL-15; experiment: Serum IL-15 of CD patients before/after IFX (RIA); format: in vivo, human
Description: as §1
The upper normal value of IL-15 (6.1 pM) was calculated by the mean+2 SD of the values measured in healthy volunteers.

[5] = system: sIL-15Rα; experiment: Serum sIL-15Rα of CD patients before/after IFX (RIA); format: in vivo, human; details: responder patients
Description: as §1

[6] = system: soluble and cell-surface TNFα; details: cited from earlier work
Sequence of soluble and cell-surface TNFα (P01375 77-233 limits assumed): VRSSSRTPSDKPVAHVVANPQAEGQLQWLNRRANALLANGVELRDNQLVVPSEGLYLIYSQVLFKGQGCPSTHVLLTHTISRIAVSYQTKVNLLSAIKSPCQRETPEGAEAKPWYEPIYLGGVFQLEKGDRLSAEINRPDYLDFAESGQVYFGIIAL

[7] = system: CD; details: in vivo; cited from earlier work
[8] = 0.01 μg/mL IFX or etanercept, cells without IFX 2.0±0.6 pM
[9] = experiment with GM-6001 0.2 nM, IFX 0.01 μg/mL, control 1.4±0.9 pM
[10] = according to TNF and CRP levels and CDAI, 40 patients, 5 treated twice (45 courses)

Compound | sIL-15Rα secretion [1, 8] | sIL-15Rα secretion [1, 9] | effect on sIL-15Rα secretion by macrophages [1] | patients classified as non-responders to IFX [2, 10] | patients classified as responders to IFX [2, 10] | patients with mucosal healing ([2]; three biopsied CD patients, all with clinical responses) | non-responder patients in whom TNF remained above the control value ([3]; week 6, 9/10) | responder patients with individual TNFα values dropping to control ranges ([3]; week 6, 20/33) | responder patients in whom TNFα decreased ([3]; week 6, 31/33) | median IL-15 levels after IFX ([4]; non-responder patients, serum) | patients in whom IL-15 was undetectable after IFX ([4]; responder patients, 15/35, before IFX 26% (9/35)) | patients in whom IL-15 dropped below the control value ([4]; responder patients, 29/35, after IFX) | increase of the proportion of patients with detectable sIL-15Rα after IFX [5] | binding to soluble and cell-surface TNFα [6] | efficacy in CD [7] | inducing effect of IFX on sIL-15Rα secretion ([1]; GM-6001 added with IFX) | basal sIL-15Rα secretion ([1]; GM-6001 alone versus control cells)
IFX: anti-TNFα monoclonal antibody, a mouse-human chimeric whole antibody (Remicade; Centocor) | 18.0 ± 1.2 pM | 22.4 ± 2.0 pM | increased significantly; also recorded: induced; also recorded: markedly increased | 10 patients | 35 patients | two | 90% | 61% | 94% | not modified | 43% | 83% | 38% | high affinity and specificity | – | – | –
etanercept | 6.3 ± 0.9 pM | – | did not significantly affect; also recorded: did not induce | – | – | – | – | – | – | – | – | – | – | – | inefficient in CD; also recorded: poor efficacy | – | –
CNC(=O)[C@H](Cc1c[nH]c2ccccc12)NC(=O)[C@@H](CC(=O)NO)CC(C)C [GM-6001] | – | 4.5 ± 3.0 pM | – | – | – | – | – | – | – | – | – | – | – | – | – | completely inhibited | not modified; also recorded: did not affect
